We go through 2 molecules from PMC8196835, “Antibacterial Properties of Small-Size Peptide Derived from Penetratin against Oral Streptococci” (Materials, 2021).

One series relates to tested bacteria. Particulars: cited from earlier work. The source says:
To overcome the drawbacks of using cationic peptides as a new generation of antibiotics, researchers began to synthesize new short peptides by reducing the residue of the peptide chain for use as candidate drugs in clinical trials. […] Therefore, we aimed to figure out the antibacterial activity of RR9 on initial oral colonizers, specifically S. oralis, S. gordonii, and S. sanguinis ... || Antibiotics are used excessively and inappropriately in clinic. As a result, it directly leads to the weakening of the effect of antibiotics and the emergence of drug-resistant pathogens. Among new biomedical alternatives, antimicrobial peptides (AMPs) and cell-penetrating peptides (CPPs) are considered promising candidates. CPPs are a new carrier that can pass through the cell membrane without cell surface receptor recognition and can deliver therapeutic drugs to the cell membrane. One of the most well-known examples of CPPs is penetratin (RQIKIWFQNRRMKWK ...

Another series deals with mammalian cells. Particulars: cited from earlier work. An excerpt: Antibiotics are used excessively and inappropriately in clinic. As a result, it directly leads to the weakening of the effect of antibiotics and the emergence of drug-resistant pathogens. Among new biomedical alternatives, antimicrobial peptides (AMPs) and cell-penetrating peptides (CPPs) are considered promising candidates. CPPs are a new carrier that can pass through the cell membrane without cell surface receptor recognition and can deliver therapeutic drugs to the cell membrane. One of the most well-known examples of CPPs is penetratin (RQIKIWFQNRRMKWK ...

The test system of a further series is sspA gene of S. gordonii. The series is described as follows: RT-PCR of sspA gene expression. It is filed as cell-based. The following applies: RR9 25 μg mL^−1 (MIC), 24 h, p < 0.05. On the procedure: Trizol reagent was employed to extract the total RNA of S. gordonii cells, following the manufacturer’s instructions. The first strand of cDNA was synthesized by the retrotranscription of 2 μL of RNA (Invitrogen, TRIzol Max Bacterial RNA Isolation Kit). The cDNA was amplified to a final volume of 20 μL by 45 cycles in a DNA thermal circulatory apparatus. Pre-denaturation was carried out at 95 °C for 15 s, and the reaction was performed at 95 °C for 10 s, 60 °C for 20 s, and 72 °C for 30 s. The primer sequences of the differentiation markers are shown in Table A1 in Appendix B. After amplification, GAPDH was defined as the internal reference gene, and the sample of the control group was set as the standard to obtain the CT value of each target gene for each sample. The data were analyzed using the relative quantification of ΔCT. The relative quantitative (RQ) values of all target genes were obtained according to the formula RQ = 2^−ΔΔCT.

Series [1] concerns human gingival fibroblasts (HGFs). It is filed as cell-based. Particulars: RR9 25 μg mL^−1, 1–4 days, CCK-8 OD 450 and AO/EB CLSM. On the procedure:
HGFs were purchased from Procell Life Science & Technology (Wuhan, China). Cells from passages 4 to 6 were used. The cultivation method was described previously.
The HGFs (2 × 10^3 cells per well) were cultured in DMEM supplemented with 10% FBS in a humidified incubator (37 °C, 5% CO2 atmosphere) for 24 h. Pretreatment of the cells was conducted by incubating with 25 μg mL^−1 RR9 for 1, 2, 3, and 4 days. Untreated cells were used as a negative control. The samples were characterized using the Cell Counting Kit-8 (Dojindo Laboratories, Kumamoto, Japan) by measuring their absorbance at 450 nm using a microplate reader (BioTek Synergy HT, Vermont, USA). After staining using AO/EB live/dead dye, the viability of seeded cells on the sterile coverslips was determined using CLSM. Each sample consisted of five wells.

The subject of series [2] is streptococci biofilm (S. oralis, S. gordonii, S. sanguinis). It is filed as cell-based. The following applies: RR9 25 μg mL^−1, 24 h at 37 °C, preformed 24 h biofilm, AO/EB. The protocol:
Each bacteria suspension (300 μL) was mixed with BHI broth (900 μL) and then cultured for 24 h in a 24-well microtiter plate for biofilm formation. After the removal of the medium and unattached bacterial cells, RR9 (25 μg mL^−1) with saliva or serum was added, and the resulting samples were cultured for another 24 h at 37 °C. After the staining of the attached bacteria using an acridine orange/ethidium bromide (AO/EB) solution (Solarbio, Beijing, China), CLSM (Leica SP8, Oskar-Barnack-Strae Germany) was used to count the number of observed bacterial cells. For each biofilm strain, three representative areas per lens were scanned in at least three separate experiments. The images were captured using MetaMorph software (Universal Imaging, West Chester, PA, USA).

Series [3] has as its system streptococci biofilms and cell membranes. The series is described as follows: SEM and TEM observation of bacterial morphology. It is filed as cell-based, S. oralis, S. gordonii, S. sanguinis. Particulars: RR9 25 μg mL^−1, 24 h (SEM), 12 h (TEM). The source says: The morphology of the formed biofilm was observed using scanning electron microscopy (SEM, SUPRA 55VP, Germany) following previously published procedures. Additionally, the transmission electron microscopy (TEM, JEM-2100F; JEOL Ltd., Tokyo, Japan)-based technique was employed for the structural analysis of RR9 cells according to the previously reported method. For more details, please check Appendix A.
A sterile coverslip was placed in a 24-well plate and was as described above. The coverslips with biofilms were fixed with 2.5% (v/v) glutaraldehyde, and the samples were dehydrated with increasing concentrations of ethanol for 15 min each. Prior to field-emission SEM, the samples were subjected to gold sputtering.
After incubation with RR9 (25 μg mL^−1) or without the peptide (control group) for 12 h at 37 °C in an anaerobic chamber (N2: 80%; H2: 10%; CO2: 10%), super-thin slice samples were prepared for TEM using a previously reported method. The cells were fixed with 2.5% glutaraldehyde at 4 °C for 4 h and, then, dyed with 2% uranyl acetate and 0.2% citrate before being observed under electron.

Series [4] has as its system streptococci biofilm (S. oralis, S. gordonii, S. sanguinis). The series is described as follows: Biofilm susceptibility, crystal violet. It is filed as cell-based. The following applies: RR9 25 μg mL^−1 (MIC), 24 h, n = 3, p < 0.05. The protocol: The antibacterial agents were evaluated by the microdilution method to study their impact on biofilm formation. In our study, streptococci (5 × 10^7 CFU mL^−1) mixed with RR9 were cultured for 24 h. The formed biofilm was fixed using methanol (95%) and stained using 0.5% (w/v) crystal violet, and the final OD at 600 nm was measured.

Series [5] relates to S. sanguinis (ATCC No 10556). It is filed as cell-based, Streptococci sanguinis. Particulars: ATCC No 10556, 24 h. On the procedure:
(§1) The bacterial strains S. oralis (ATCC No 9811), S. sanguinis (ATCC No 10556), and S. gordonii (ATCC No 10558) were purchased from the ATCC (American Type Culture Collection, Manassas, VA, USA). The cultivation method was the same as that described in a previous article.
(§2) The bacterial growth inhibiting ability of the peptide was determined using a broth microdilution-based method with modifications. […] The start inoculum was 5 × 10^7 CFU mL^−1, and the MIC was denoted as the lowest concentration of peptides where bacterial growth was stopped. After bacteria were treated with RR9 for 24 h, 20 uL was removed from each sample and spread on a brain heart infusion (BHI) agar plate. The CFU on plates were counted after incubation at 37 °C for 5 days. The MBC is the concentration of RR9 where over 99.9% of the cells were inhibited.

The test system of series [6] is planktonic oral streptococci (S. oralis, S. sanguinis, S. gordonii). The series is described as follows: Time-kill assay. It is filed as cell-based. The protocol:
To evaluate the effect of RR9 on planktonic oral streptococci, the time-killing assay was used. First, 200 μL of RR9 solution and 800 μL of BHI broth were mixed with 1 mL of bacterial culture (5 × 10^7 CFU mL^−1), yielding 2 mL of the final volume with 100%, 200%, or 400% of the MBC final peptide concentrations. After 0, 0.25, 0.5, 1, 2, 4, 24, and 48 h of incubation at 37 °C, 10 μL of each suspension was pipetted, serially diluted 10 times, and finally transferred to a BHI agar plate for CFU determination. The time–kill kinetic curves were obtained by recording log(CFU mL^−1) as a function of incubation time […].

Series [7] concerns S. gordonii (ATCC No 10558). It is filed as cell-based, Streptococci gordonii. Particulars: ATCC No 10558, 24 h. On the procedure:
as §1, §2

The test system of another series is S. oralis (ATCC No 9811). It is filed as cell-based, Streptococci oralis. Particulars: ATCC No 9811, 24 h. The protocol: as §1, §2

Converted amounts (≈) assume the structure as drawn. Residues, ends and D or L forms follow the SMILES beside them.

Take “RQIKIWFQNRRMKWKK-NH2 [penetratin, well-known cell-penetrating peptide, …-NH2]”: in the series with tested bacteria, the “bactericidal effect on the tested bacteria” value is “strong bactericidal effect”. Besides, the “cytotoxicity toward mammalian cells” value with mammalian cells is listed as “without any cytotoxicity”.
Broadly, the MBC is the smallest concentration meeting the test's criterion for killing. Low readings indicate more potent killing, high ones less potent killing. What is called MIC is the lowest concentration found to suppress growth. High values mean a need for much substance, low ones inhibition by little substance. Regarding `CC[C@H](C)[C@H](NC(=O)[C@H](CCC(N)=O)NC(=O)[C@@H](N)CCCNC(=N)N)C(=O)N[C@@H](CCCNC(=N)N)C(=O)N[C@@H](CCCNC(=N)N)C(=O)N[C@@H](Cc1c[nH]c2ccccc12)C(=O)N[C@@H](Cc1c[nH]c2ccccc12)C(=O)N[C@@H](CCC(N)=O)C(=O)N[C@@H](CCCNC(=N)N)C(N)=O` [RR9, Arg-Gln-Ile-Arg-Arg-Trp-Trp-Gln-Arg-NH2] (H-RQIRRWWQR-NH2; N-terminus assumed), in the series on sspA gene of S. gordonii, the “expression of the sspA gene versus control” value is reported as “significantly reduced”. The “antimicrobial effect against selected bacteria” value in the series on tested bacteria is recorded as “strong antimicrobial effect”. The “cytotoxicity toward HGFs” value in series [1] is given as “negligible cytotoxicity”. Also, the “anti-biofilm effect of RR9 with saliva or serum compared with RR9 alone (CLSM live/dead)” value in [2] is “No significant difference”. In addition, the “bacterial morphology and membrane integrity (SEM, TEM)” value in series [3] is “the bacteria swelled, and some cell membranes were damaged”. In addition, the “biofilm formation, OD at 600 nm versus control” value in series [4] is on record as “reduced OD value”. The results for the minimum bactericidal concentration (MBC) (in series [5]; in series [7]; with S. oralis (ATCC No 9811)) were 62.5 µg/mL (≈ 45.2 µM), 50 µg/mL (≈ 36.1 µM) and 62.5 µg/mL (≈ 45.2 µM), respectively. The MIC (in series [5]; in series [7]; in the series with S. oralis (ATCC No 9811)) was 25 µg/mL (≈ 18.1 µM) in each case. Further, the “time to complete bacterial death” value in series [6] (100%, 200% or 400% of the MBC, 37 °C, all tested strains) was in the range of 24 to 48 h. For the same molecule, in series [6] (time-kill over 48 h), the “duration of the antimicrobial effect” value is given as 44 h.
